From ChEMBL document CHEMBL3853276, “Alkaloids from Hippeastrum argentinum and Their Cholinesterase-Inhibitory Activities: An in Vitro and in Silico Study” (J Nat Prod, 2016)
pIC50: −log10 of the molar value.

Legend:
Cholinesterase = Cholinesterase (Equus caballus, UniProt P81908); test: Inhibition of equine serum BuChE using ATCI as substrate preincubated for 30 mins followed by substrate addition measured after 5 mins by DTNB-based spectrophotometric analysis
Acetylcholinesterase = Acetylcholinesterase (Electrophorus electricus, UniProt O42275); test: Inhibition of electric eel AChE using ATCI as substrate preincubated for 30 mins followed by substrate addition measured after 5 mins by DTNB-based spectrophotometric analysis
Chain of Acetylcholinesterase (O42275 whole entry): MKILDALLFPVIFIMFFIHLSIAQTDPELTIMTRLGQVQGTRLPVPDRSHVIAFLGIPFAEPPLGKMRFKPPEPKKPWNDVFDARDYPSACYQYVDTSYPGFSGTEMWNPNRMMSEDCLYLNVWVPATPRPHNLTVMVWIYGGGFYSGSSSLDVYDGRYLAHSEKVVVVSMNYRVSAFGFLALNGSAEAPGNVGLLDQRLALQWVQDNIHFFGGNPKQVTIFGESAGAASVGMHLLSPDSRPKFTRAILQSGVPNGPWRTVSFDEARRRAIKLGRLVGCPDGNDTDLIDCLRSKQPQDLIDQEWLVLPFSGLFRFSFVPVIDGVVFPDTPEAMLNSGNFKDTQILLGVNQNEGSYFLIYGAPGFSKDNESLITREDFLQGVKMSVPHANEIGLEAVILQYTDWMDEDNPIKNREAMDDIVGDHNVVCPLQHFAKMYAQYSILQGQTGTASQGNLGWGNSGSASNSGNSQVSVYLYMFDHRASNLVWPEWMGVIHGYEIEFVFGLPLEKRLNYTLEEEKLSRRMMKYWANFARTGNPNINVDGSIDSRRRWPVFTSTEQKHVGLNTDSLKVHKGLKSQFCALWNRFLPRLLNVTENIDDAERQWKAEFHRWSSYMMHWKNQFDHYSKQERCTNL

[1] = Selectivity index, ratio of IC50 for electric eel AChE to IC50 for equine serum BuChE

Chain of Cholinesterase (P81908 whole entry): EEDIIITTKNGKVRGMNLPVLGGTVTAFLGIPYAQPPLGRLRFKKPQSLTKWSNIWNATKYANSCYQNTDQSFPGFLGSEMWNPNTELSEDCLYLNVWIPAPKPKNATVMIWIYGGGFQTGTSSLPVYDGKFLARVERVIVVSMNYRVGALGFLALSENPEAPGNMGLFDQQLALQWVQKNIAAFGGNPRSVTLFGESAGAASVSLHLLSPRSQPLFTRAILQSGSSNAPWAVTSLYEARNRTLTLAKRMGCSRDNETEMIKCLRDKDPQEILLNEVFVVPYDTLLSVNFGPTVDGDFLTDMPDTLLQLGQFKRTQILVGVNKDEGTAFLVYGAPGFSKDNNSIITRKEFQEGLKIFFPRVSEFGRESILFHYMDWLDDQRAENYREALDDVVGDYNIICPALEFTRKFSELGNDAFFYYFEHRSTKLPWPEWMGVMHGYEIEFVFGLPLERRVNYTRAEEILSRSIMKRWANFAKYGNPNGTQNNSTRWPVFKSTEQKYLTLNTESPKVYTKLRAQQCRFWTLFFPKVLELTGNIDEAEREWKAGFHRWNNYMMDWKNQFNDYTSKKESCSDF

Compound | pIC50 (Cholinesterase) | pIC50 (Acetylcholinesterase) | Ratio IC50 [1]
CO[C@H]1C=C2[C@H]3C[N@@](Cc4cc5c(cc43)OCO5)[C@H]2C[C@@H]1O [MONTANINE] | < 3.70 | < 3.70 | 
CO[C@H]1[C@H]2C(=CC[C@@H]1O)[C@H]1CN2Cc2cc3c(cc21)OCO3 | < 3.70 | < 3.70 | 
CN1CC[C@@H]2C[C@H](O)[C@H]3OC(=O)c4c(cc5c(c4O)OCO5)[C@H]3[C@@H]21 | 4.17 | 3.94 | 1.69
O[C@H]1[C@H]2c3cc4c(cc3CN3CCC(=C[C@@H]1O)[C@H]23)OCO4 [LYCORINE] | < 3.70 |  | 
O[C@H]1C=C2[C@H]3CN(Cc4cc5c(cc43)OCO5)[C@H]2C[C@@H]1O | < 3.70 | < 3.70 | 
